Data on 10 compounds can be found in patent publication US4840947A, “Antiinflammatory and analgesic piperidin-4-yl-tetracyclic benzodiazepines and use thereas” (Hoechst-Roussel Pharmaceuticals, Inc., priority 1986, dated 1989).

Each structure is given as a SMILES string. Like-named read-outs stand apart in the source and are kept apart here.

The test system of experiment [1] is adjuvant-induced polyarthritis in rats. Briefly: Adjuvant-Induced Polyarthritis In Rats. In kind it is in vivo, rat (male Charles River-Wistar Lewis). To be noted: rat, p.o.; for percent inhibition of paw volume, adjuvant-treated paw / percent inhibition of paw volume, non-injected paw: at 50 mg/kg; for ED50: po. As to the method:
This activity was measured by a procedure similar to that described by C.
Groups of 10 male Charles River-Wistar Lewis rats weighing 150 to 175 g were individually housed and maintained on a regular rat chow diet. Water was given ad libitum. The adjuvant was prepared by suspending 75 mg of Mycobacterium butyricum (Difco Laboratories, Detroit, Mich.) in 10 ml of white paraffin oil with continuous stirring for 2 hours at room temperature prior to administration. Test compounds are prepared by suspending the drug in water, adding one drop of Tween 80 per 10 ml of suspension, and homogenizing. The adjuvant suspension (0.1 ml) was injected into the footpad of the left hind paw of the rat. Test compound suspensions were administered orally (10 ml/kg) the day before adjuvant suspension injection and the administration was continued for 21 days. One group of ten rats was used for the test drug. Standard, adjuvant-injected control and non-injected control groups are run along with the test drug. Control animals received vehicle (10 ml/kg). Three doses of test drug and one dose of standard preparation were used. Injected and non-injected paw volumes were determined on the day the adjuvant suspension was given, and on subsequent days thereafter (usually days 5, 10, 18, and 21) by the method of C. A. Winter, et al., Proc. Soc.
The percent inhibition of paw volume (injected and non-injected hind paw) was calculated by the following formula: [formula]

The subject of experiment [2] is carrageenan-induced rat paw edema. The experiment can be described thus: Inhibition of Carrageenan-Induced Rat Paw Edema. In kind it is in vivo. The conditions noted are these: for Percent Inhibition of carrageenan-induced rat paw edema: at 100 mg/kg, p.o.; for ED50: po.
The test system of experiment [3] is 2-phenyl-1,4-benzoquinone induced writhing in mice. The experiment can be described thus: Phenylquinone Induced Writhing in Mice (2-phenyl-1,4-benzoquinone, analgesia). In kind it is in vivo, mouse. To be noted: for Percent Inhibition of phenylquinone induced writhing: at 20 mg/kg; for ED50: Mus musculus, sc, read-out: ED50, inhibition of phenylquinone induced writhing. Background: In writhing tests, fewer writhes than in controls are read as antinociception.

The mark [4] stands for this setting: adjuvant-treated (injected) paw.
Where [5] appears, read: adjuvant-treated (injected) paw, read-out: ED50 (50% inhibition of paw volume), adjuvant-treated paw.
[6] abbreviates: non-injected paw, read-out: ED50 (50% inhibition of paw volume), non-injected paw.

In the case of `CN1CCC(C2Nc3ccccc3N3CCCc4cccc2c43)CC1` (stereo not shown) [7-(1-Methyl-4-piperidinyl)-2,3,7,8-tetrahydro-1H-quino[1,8-ab][1,5]benzodiazepine hemifumarate hemihydrate], the “percent inhibition of paw volume, adjuvant-treated paw” value in experiment [1] (setting [4]) was determined as 39%. Also, the “percent inhibition of paw volume, non-injected paw” value in experiment [1] (non-injected paw) is on record as 79%. The “Percent Inhibition of carrageenan-induced rat paw edema” value in experiment [2] was 21%. For the same compound, the “Percent Inhibition of phenylquinone induced writhing” value in experiment [3] (mice, s.c.) is 27%.

Turning to `CN1CCC(C2Nc3cc(F)ccc3N3CCc4cccc2c43)CC1` (stereo not shown) [9-Fluoro-6-(1-methylpiperidin-4-yl)-1,2,6,7-tetrahydrobenzo[b]pyrrolo[3,2,1-jk][1,4]benzodiazepine], the “percent inhibition of paw volume, adjuvant-treated paw” value in experiment [1] (setting [4]) is listed as 48%. In addition, the “percent inhibition of paw volume, non-injected paw” value in experiment [1] (non-injected paw) was 116%. Also, the “Percent Inhibition of phenylquinone induced writhing” value in experiment [3] (mice, s.c.) is 35%.

The term ED50 denotes the midpoint of the dose-response relation. As for `CN1CCC(C2Nc3cc(Br)ccc3N3CCc4cccc2c43)CC1` (stereo not shown) [9-Bromo-6-(1-methylpiperidin-4-yl)-1,2,6,7-tetrahydrobenzo[b]pyrrolo[3,2,1-jk][1,4]benzodiazepine], the ED50 in experiment [1] (setting [5]) was determined as 112 mg/kg; in experiment [1] (setting [6]), 3.6 mg/kg. In addition, the “Percent Inhibition of carrageenan-induced rat paw edema” value in experiment [2] amounted to 40%.

Turning to `CCC(=O)O[C@](Cc1ccccc1)(c1ccccc1)[C@H](C)CN(C)C` [Propoxyphene, reference compound], in experiment [3], the 50% effective dose (ED50) stood at 3.9 mg/kg.

As for `CCO.CN1CCC(C2Nc3ccccc3N3CCc4cccc2c43)CC1.O=C(O)/C=C/C(=O)O` (stereo not shown) [6-(1-Methylpiperidin-4-yl)-1,2,6,7-tetrahydrobenzo[b]pyrrolo[3,2,1-jk][1,4]benzodiazepine fumarate ethanolate], the 50% effective dose (ED50) in experiment [1] (setting [5]) came to 73.6 mg/kg; in experiment [1] (setting [6]), 18.5 mg/kg; in experiment [2] it was 41.5 mg/kg. For the same compound, the “Percent Inhibition of phenylquinone induced writhing” value in experiment [3] (mice, s.c.) is listed as 51%.

Turning to `CN1CCC(C2c3cccc4c3N(CC4)c3ccccc3N2C=O)CC1.O=CO` (stereo not shown) [7-Formyl-6-(1-methylpiperidin-4-yl)-1,2,6,7-tetrahydrobenzo[b]pyrrolo[3,2,1-jk][1,4]benzodiazepine formate], the 50% effective dose (ED50) in experiment [3] (mice, s.c.) turned out to be 0.9 mg/kg.

For `CCCCC1C(=O)N(c2ccccc2)N(c2ccccc2)C1=O` [Phenylbutazone, reference compound], the median effective dose (ED50) in experiment [1] (setting [5]) was determined as 14 mg/kg; in experiment [1] (setting [6]), 9.4 mg/kg; in experiment [2], 50 mg/kg.

In the case of `CN1CCC(C2c3cccc4c3N(CC4)c3ccccc3N2C)CC1` (stereo not shown) [7-Methyl-6-(1-methylpiperidin-4-yl)-1,2,6,7-tetrahydrobenzo[b]pyrrolo[3,2,1-jk][1,4]benzodiazepine], the ED50 in experiment [3] (mice, s.c.) stood at 2.6 mg/kg.

As to `CCO.CN1CCC(C2Nc3ccccc3N3CCc4cc(Br)cc2c43)CC1` (stereo not shown) [4-Bromo-6-(1-methylpiperidin-4-yl)-1,2,6,7-tetrahydrobenzo[b]pyrrolo[3,2,1-jk][1,4]benzodiazepine ethanolate], the “Percent Inhibition of phenylquinone induced writhing” value in experiment [3] (mice, s.c.) came to 47%.

Take `CN1CCC(C2c3cccc4c3N(CC4)c3ccccc3N2C(=O)OCC(Cl)(Cl)Cl)CC1` (stereo not shown) [6-(1-Methylpiperidin-4-yl)-1,2,6,7-tetrahydrobenzo[b]pyrrolo[3,2,1-jk][1,4]benzodiazepine-7-carboxylic acid, 2,2,2-trichloroethyl ester]: the “Percent Inhibition of carrageenan-induced rat paw edema” value in experiment [2] is reported as 44%.
